Measured values published in the NIST ThermoML archive (doi:10.1016/j.jct.2011.07.021).

What was measured:
[1] = refractive index (Na D-line) (dimensionless); xn = mol fraction of the nth substance listed; details: 101 kPa, Liquid, Standard Abbe refractometry
[2] = relative permittivity at zero frequency (dimensionless); xn = mol fraction of the nth substance listed; details: 101 kPa, Liquid, Parallel plate capacitor

CCC(O)CO (configuration not stated) [1,2-butanediol] + C1COCCO1
Details | refractive index, 298.2 K | refractive index, 308.2 K | refractive index, 318.2 K | relative permittivity at zero frequency, 298.2 K | relative permittivity at zero frequency, 308.2 K | relative permittivity at zero frequency, 318.2 K
[1], x1 = 0.099 | 1.4212 | 1.416 | 1.4103 | – | – | –
[1], x1 = 0.148 | 1.4221 | 1.4166 | 1.4115 | – | – | –
[1], x1 = 0.197 | 1.4227 | 1.4173 | 1.4124 | – | – | –
[1], x1 = 0.246 | 1.4236 | 1.4182 | 1.4133 | – | – | –
[1], x1 = 0.299 | 1.4242 | 1.4189 | 1.4142 | – | – | –
[1], x1 = 0.349 | 1.4253 | 1.42 | 1.415 | – | – | –
[1], x1 = 0.401 | 1.4259 | 1.4208 | 1.4162 | – | – | –
[1], x1 = 0.448 | 1.4268 | 1.4218 | 1.4168 | – | – | –
[1], x1 = 0.51 | 1.428 | 1.4231 | 1.4177 | – | – | –
[1], x1 = 0.55 | 1.4287 | 1.4237 | 1.4191 | – | – | –
[1], x1 = 0.611 | 1.4297 | 1.4248 | 1.4203 | – | – | –
[1], x1 = 0.685 | 1.4311 | 1.4263 | 1.4218 | – | – | –
[1], x1 = 0.788 | 1.433 | 1.4285 | 1.4236 | – | – | –
[1], x1 = 0.855 | 1.4341 | 1.4295 | 1.4253 | – | – | –
[1], x1 = 0.907 | 1.4353 | 1.4307 | 1.4265 | – | – | –
[1], x1 = 0.96 | 1.436 | 1.432 | 1.4278 | – | – | –
[1], x1 = 1 | 1.4372 | 1.433 | 1.4288 | – | – | –
[2], x1 = 0.099 | – | – | – | 3.127 | 3.015 | 2.92
[2], x1 = 0.148 | – | – | – | 3.659 | 3.496 | 3.359
[2], x1 = 0.197 | – | – | – | 4.254 | 4.064 | 3.875
[2], x1 = 0.246 | – | – | – | 4.882 | 4.632 | 4.406
[2], x1 = 0.299 | – | – | – | 5.685 | 5.407 | 5.046
[2], x1 = 0.349 | – | – | – | 6.472 | 6.079 | 5.696
[2], x1 = 0.401 | – | – | – | 7.376 | 6.854 | 6.419
[2], x1 = 0.448 | – | – | – | 8.243 | 7.732 | 7.193
[2], x1 = 0.51 | – | – | – | 9.466 | 8.817 | 8.122
[2], x1 = 0.55 | – | – | – | 10.263 | 9.592 | 8.783
[2], x1 = 0.611 | – | – | – | 11.646 | 10.84 | 9.908
[2], x1 = 0.685 | – | – | – | 13.401 | 12.41 | 11.301
[2], x1 = 0.788 | – | – | – | 16.007 | 14.739 | 13.469
[2], x1 = 0.855 | – | – | – | 17.761 | 16.335 | 15.027
[2], x1 = 0.907 | – | – | – | 19.272 | 17.748 | 16.307
[2], x1 = 0.96 | – | – | – | 20.867 | 19.214 | 17.628
[2], x1 = 1 | – | – | – | 22.143 | 20.365 | 18.661

CCCCC(CC)CO (configuration not stated) [2-ethyl-1-hexanol] + CCC(O)CO
Details | refractive index, 298.2 K | refractive index, 308.2 K | refractive index, 318.2 K | relative permittivity at zero frequency, 298.2 K | relative permittivity at zero frequency, 308.2 K | relative permittivity at zero frequency, 318.2 K
[1], x2 = 0 | 1.4293 | 1.4252 | 1.4213 | – | – | –
[1], x2 = 0.111 | 1.4295 | 1.4254 | 1.4215 | – | – | –
[1], x2 = 0.199 | 1.4295 | 1.4257 | 1.4219 | – | – | –
[1], x2 = 0.291 | 1.4299 | 1.4259 | 1.4222 | – | – | –
[1], x2 = 0.345 | 1.4301 | 1.4261 | 1.4225 | – | – | –
[1], x2 = 0.399 | 1.4303 | 1.4265 | 1.4228 | – | – | –
[1], x2 = 0.448 | 1.4307 | 1.4269 | 1.423 | – | – | –
[1], x2 = 0.501 | 1.431 | 1.4272 | 1.4234 | – | – | –
[1], x2 = 0.563 | 1.4313 | 1.4275 | 1.4237 | – | – | –
[1], x2 = 0.625 | 1.432 | 1.4281 | 1.4241 | – | – | –
[1], x2 = 0.667 | 1.4323 | 1.4284 | 1.4245 | – | – | –
[1], x2 = 0.702 | 1.4327 | 1.4289 | 1.4249 | – | – | –
[1], x2 = 0.75 | 1.4335 | 1.4295 | 1.4253 | – | – | –
[1], x2 = 0.814 | 1.4342 | 1.4303 | 1.4259 | – | – | –
[1], x2 = 0.897 | 1.4354 | 1.4314 | 1.427 | – | – | –
[2], x2 = 0 | – | – | – | 7.353 | 6.362 | 5.52
[2], x2 = 0.111 | – | – | – | 7.683 | 6.922 | 6.232
[2], x2 = 0.199 | – | – | – | 8.152 | 7.52 | 6.851
[2], x2 = 0.291 | – | – | – | 8.91 | 8.32 | 7.636
[2], x2 = 0.345 | – | – | – | 9.464 | 8.8 | 8.14
[2], x2 = 0.399 | – | – | – | 10.065 | 9.44 | 8.701
[2], x2 = 0.448 | – | – | – | 10.678 | 9.995 | 9.312
[2], x2 = 0.501 | – | – | – | 11.404 | 10.69 | 9.954
[2], x2 = 0.563 | – | – | – | 12.382 | 11.556 | 10.873
[2], x2 = 0.625 | – | – | – | 13.435 | 12.625 | 11.819
[2], x2 = 0.667 | – | – | – | 14.198 | 13.357 | 12.559
[2], x2 = 0.702 | – | – | – | 14.955 | 14.023 | 13.21
[2], x2 = 0.75 | – | – | – | 15.885 | 15.005 | 14.022
[2], x2 = 0.814 | – | – | – | 17.454 | 16.338 | 15.347
[2], x2 = 0.897 | – | – | – | 19.447 | 18.115 | 16.989
